# Test results reported in US6444692B1, “Fungicidal mixtures” (BASF Aktiengesellschaft, priority 1997, dated 2002).
# Test system: powdery mildew of wheat (Erysiphe graminis forma specialis tritici)
# Assay: Activity against powdery mildew of wheat (protective spray on wheat seedlings, visual % infection of leaf area after 7 days)
# Type: in vivo
# Details: single active ingredient, wheat seedlings cv. Frühgold
# Description: The active ingredients, separately or together, are formulated as a 10% emulsion in a mixture of 70% by weight of cyclohexanone, 20% by weight of Nekanil® LN (Lutensol® AP6, wetting agent having emulsifying and dispersing action, based on ethoxylated alkylphenols) and 10% by weight of Emulphor® EL (Emulan® EL, emulsifier based on ethoxylated fatty alcohols) and diluted with water to give the desired concentration.
# Leaves of wheat seedlings cv. “Frühgold” which had been grown in pots were sprayed to runoff point with an aqueous preparation of active ingredient which had been prepared from a stock solution comprising 10% of active ingredient, 63% of cyclohexanone and 27% of emulsifier and, 24 hours after the spray coating had dried on, dusted with spores of powdery mildew of wheat (Erysiphe graminis forma specialis tritici). The test plants were subsequently placed in a greenhouse at from […] and a relative atmospheric humidity of 60 to 90%. After 7 days, the extent of mildew development was determined visually as % infection of the total leaf area.
# Evaluation is carried out by determining the infected leaf areas in percent. These percentages are converted into efficacies. The expected efficacies of the mixtures of the active ingredients are determined using Colby's formula [R. S. Colby, Weeds 15, 20-22 (1967)] and compared with the observed efficacies. […]
# The efficacy (E) is calculated as follows using Abbot's formula: […]
# α corresponds to the fungal infection of the treated plants in % and
# β corresponds to the fungal infection of the untreated (control) plants in %
# An efficacy of 0 means that the infection level of the treated plants corresponds to that of the untreated control plants; an efficacy of 100 means that the treated plants were not infected.
SMILES,Efficacy in % of the untreated control (0.125 ppm in the spray liquor) [%],Efficacy in % of the untreated control (0.5 ppm in the spray liquor) [%]
COC(=O)N(OC)c1ccccc1COc1ccn(-c2ccc(Cl)cc2)n1 [Compound I.32],0,10
CNC(=O)/C(=N\OC)c1ccccc1COc1cc(C)ccc1C [Compound III],20,
CO/N=C(\C(=O)OC)c1ccccc1COc1ccccc1C [Compound II],0,
